Tests used:
[1] = Henry solubility constant Hcp at 293 K (mol/(m3 Pa)); settings: reference: Dohnal and Hovorka (1999)
[2] = Henry solubility constant Hcp at 298.15 K (mol/(m3 Pa)); settings: reference: Dohnal and Hovorka (1999)

Row | Structure (SMILES) | Henry solubility constant Hcp at 293 K [1] | Henry solubility constant Hcp [2]
1 | Clc1ccccc1 [chlorobenzene] | 0.0036 | –
2 | c1ccccc1 [benzene] | – | 0.0018
3 | C=Cc1ccccc1 [ethenylbenzene] | – | 0.0034
4 | CCCCCl [1-chlorobutane] | 0.00067 | –
5 | BrCBr [dibromomethane] | 0.014 | –
6 | CC(Cl)CCl (centres undefined) [1,2-dichloropropane] | 0.0044 | –
7 | ClC(Cl)=C(Cl)Cl [tetrachloroethene] | 0.00086 | –
8 | Cc1ccccc1C [1,2-dimethylbenzene] | – | 0.0021
9 | Cc1cccc(C)c1 [1,3-dimethylbenzene] | – | 0.0015
10 | Cc1ccccc1 [methylbenzene] | – | 0.0016
11 | Cc1ccc(C)cc1 [1,4-dimethylbenzene] | – | 0.0015
12 | ClCC(Cl)Cl [1,1,2-trichloroethane] | 0.015 | –
13 | CC(C)OC(C)C [diisopropyl ether] | – | 0.0047
14 | CCC(C)(C)OC [2-methoxy-2-methylbutane] | – | 0.01

From Sander's compilation of Henry's law constants (doi:10.1021/ie980743h)
